Earlier results as cited in patent publication US11433083B2, “High-strength testosterone undecanoate compositions” (priority 2010, dated 2022).

CCCCCCCCCCC(=O)O[C@H]1CC[C@H]2[C@@H]3CCC4=CC(=O)CC[C@]4(C)[C@H]3CC[C@]12C [Testosterone undecanoate, testosterone undecanoate]
water solubility: < 0.3 ng/mL
